# Like-named read-outs stand apart in the source and are kept apart here. Marks after values point to notes of the source that are not given here.
# What was measured:
# Assay type in all cases: physicochemical
# [1] = Dynamic water vapor adsorption detection of crystalline form III
# [2] = Solid state stability test (XRPD and HPLC); conditions: for Purity-1 week (Peak area %): HPLC, initial purity 99.71%; for Crystal-1 week: XRPD
# Text: (§1) X-ray powder diffraction patterns were collected on a PANalytical Empyrean X-ray diffractometer of the Netherlands equipped with a transmission-reflection sample stage with an automated 3*15 zero background sample holder. The radiation source used was (Cu, kα, Kα1 (Å): 1.540598; Kα2 (Å): 1.544426; Kα2/Kα1 intensity ratio: 0.50), wherein the voltage was set at 45 KV and the current was set at 40 mA. The beam divergence of the X-rays, i.e. the effective size of the X-ray confinement on the sample, was 6.6 mm. The continuous scanning mode of θ-θ was adopted, and an effective 2θ range of 3° to 40° was obtained. A proper amount of sample was placed at the position of the circular groove of the zero-background sample rack under the environmental condition (about 18° C. to 32° C.), the sample was lightly pressed with a clean glass slide to obtain a flat plane, and the zero-background sample rack was fixed. The samples were scanned at a scan step of 0.013° in the range of 3° to 40° 2θ±0.2° to obtain a traditional X-ray powder diffraction pattern.
# The instrument used for liquid chromatography analysis is Agilent HPLC 1260 series, which is used for the analysis of solid-state stability of samples.
# A certain amount of crystalline form III of compound A as a sample was placed under conditions of 40° C./75% RH (open) and 60° C. (closed) for one week, and XRPD and HPLC of the sample were tested.
# [3] = Grinding experiment of crystalline form III (XRPD after manual grinding); conditions: ground manually with mortar and pestle for 5 minutes
# Text: as §1
# Crystalline form III was ground manually with a mortar and pestle for 5 minutes, and XRPD of the ground solid was tested.
# [4] = Solubility test in biological media (SGF, FaSSIF, FeSSIF) and water at 37° C.; conditions: for pH (24 h): solution pH after 24 h; for solubility at 0.5 h: read-out: Solubility (mg/mL) 0.5 h; for solubility at 2 h: read-out: Solubility (mg/mL) 2 h; for solubility at 24 h: read-out: Solubility (mg/mL) 24 h
# Description: Crystalline form III has the highest solubility in SGF (>7 mg/mL). The solubility in pure water, FeSSIF, and FaSSIF were all greater than 1 mg/mL.
compound,measurement,setting,value
"CC(C)C(=O)OC[C@H]1O[C@@](C#N)(c2ccc3c(N)ncnn23)[C@H](O)[C@@H]1O [crystalline form III, ((2R,3S,4R,5R)-5-(4-aminopyrrolo[2,1-f][1,2,4]triazin-7-yl)-5-cyano-3,4-dihydroxytetrahydrofuran-2-yl) methyl isobutyrate]",weight gain,[1]; 80% RH and 25° C.,less than 0.2%
same,crystalline form after testing,[1]; after dynamic water vapor adsorption test,did not change
same,hygroscopicity,[1]; dynamic water vapor adsorption test,does not have hygroscopicity
same,Purity-1 week (Peak area %),"[2]; 40° C./75% RH, open, listed as Sample 1",99.68%
same,Purity-1 week (Peak area %),"[2]; 40° C./75% RH, open, listed as Sample 2",99.71%
same,Crystal-1 week,"[2]; 40° C./75% RH, open",No change
same,Purity-1 week (Peak area %),"[2]; 60° C. & closed, listed as Sample 1",99.71%
same,Purity-1 week (Peak area %),"[2]; 60° C. & closed, listed as Sample 2",99.65%
same,Crystal-1 week,[2]; 60° C. & closed,No change
same,physical and chemical stability,"[2]; two acceleration conditions (40° C./75% RH open, 60° C. closed) for 14 days",physically and chemically stable
same,crystalline structure after grinding (XRPD),[3],did not change
same,pH (24 h),[4]; FaSSIF (pH = 6.53),6.50
same,pH (24 h),[4]; FeSSIF (pH = 4.97),4.96
same,Solubility (mg/mL),"[4]; SGF (pH = 1.20), 0.5 h, 2 h, 24 h, visual observation",>7* mg/mL
same,pH (24 h),[4]; SGF (pH = 1.20),1.37
same,change in solution pH after the solubility test,"[4]; SGF, FaSSIF, FeSSIF and water",no significant change
same,pH (24 h),[4]; Water (pH = 6.67),6.43
same,solubility,"[4]; pH 1.2, simulated gastric fluid, thermodynamic from solid, SGF (pH = 1.20), 0.5 h, 2 h, 24 h, visual observation",> 7000 µg/mL
same,solubility,"[4]; pH 4.97, thermodynamic from solid, FeSSIF",> 1000 µg/mL
same,solubility,"[4]; pH 6.53, thermodynamic from solid, FaSSIF",> 1000 µg/mL
same,solubility,"[4]; pH 6.67, thermodynamic from solid, pure water",> 1000 µg/mL
same,XRPD (24 h),[4]; solid after 24 h in FaSSIF (pH = 6.53),Crystalline
same,XRPD (24 h),[4]; solid after 24 h in FeSSIF (pH = 4.97),Crystalline
same,XRPD (24 h),[4]; solid after 24 h in Water (pH = 6.67),Crystalline
same,solubility at 0.5 h,"[4]; thermodynamic from solid, FaSSIF (pH = 6.53), 0.5 h",1.22 mg/mL
same,solubility at 2 h,"[4]; thermodynamic from solid, FaSSIF (pH = 6.53), 2 h",1.26 mg/mL
same,solubility at 24 h,"[4]; thermodynamic from solid, FaSSIF (pH = 6.53), 24 h",1.19 mg/mL
same,solubility at 0.5 h,"[4]; thermodynamic from solid, FeSSIF (pH = 4.97), 0.5 h",1.63 mg/mL
same,solubility at 2 h,"[4]; thermodynamic from solid, FeSSIF (pH = 4.97), 2 h",1.66 mg/mL
same,solubility at 24 h,"[4]; thermodynamic from solid, FeSSIF (pH = 4.97), 24 h",1.68 mg/mL
same,solubility at 0.5 h,"[4]; thermodynamic from solid, Water (pH = 6.67), 0.5 h",1.11 mg/mL
same,solubility at 2 h,"[4]; thermodynamic from solid, Water (pH = 6.67), 2 h",1.22 mg/mL
same,solubility at 24 h,"[4]; thermodynamic from solid, Water (pH = 6.67), 24 h",1.24 mg/mL
